Activity data for 1 compound are collected here from ChEMBL document CHEMBL1250444, “Nitric oxide activates TRP channels by cysteine S-nitrosylation” (Nat Chem Biol, 2006).

Structures are written as SMILES. Active and inactive are the calls of the source. No cut-off for these calls is given here.

This test addresses T1, Short transient receptor potential channel 5 (Homo sapiens) (UniProt Q9UL62).
T1 sequence (whole entry): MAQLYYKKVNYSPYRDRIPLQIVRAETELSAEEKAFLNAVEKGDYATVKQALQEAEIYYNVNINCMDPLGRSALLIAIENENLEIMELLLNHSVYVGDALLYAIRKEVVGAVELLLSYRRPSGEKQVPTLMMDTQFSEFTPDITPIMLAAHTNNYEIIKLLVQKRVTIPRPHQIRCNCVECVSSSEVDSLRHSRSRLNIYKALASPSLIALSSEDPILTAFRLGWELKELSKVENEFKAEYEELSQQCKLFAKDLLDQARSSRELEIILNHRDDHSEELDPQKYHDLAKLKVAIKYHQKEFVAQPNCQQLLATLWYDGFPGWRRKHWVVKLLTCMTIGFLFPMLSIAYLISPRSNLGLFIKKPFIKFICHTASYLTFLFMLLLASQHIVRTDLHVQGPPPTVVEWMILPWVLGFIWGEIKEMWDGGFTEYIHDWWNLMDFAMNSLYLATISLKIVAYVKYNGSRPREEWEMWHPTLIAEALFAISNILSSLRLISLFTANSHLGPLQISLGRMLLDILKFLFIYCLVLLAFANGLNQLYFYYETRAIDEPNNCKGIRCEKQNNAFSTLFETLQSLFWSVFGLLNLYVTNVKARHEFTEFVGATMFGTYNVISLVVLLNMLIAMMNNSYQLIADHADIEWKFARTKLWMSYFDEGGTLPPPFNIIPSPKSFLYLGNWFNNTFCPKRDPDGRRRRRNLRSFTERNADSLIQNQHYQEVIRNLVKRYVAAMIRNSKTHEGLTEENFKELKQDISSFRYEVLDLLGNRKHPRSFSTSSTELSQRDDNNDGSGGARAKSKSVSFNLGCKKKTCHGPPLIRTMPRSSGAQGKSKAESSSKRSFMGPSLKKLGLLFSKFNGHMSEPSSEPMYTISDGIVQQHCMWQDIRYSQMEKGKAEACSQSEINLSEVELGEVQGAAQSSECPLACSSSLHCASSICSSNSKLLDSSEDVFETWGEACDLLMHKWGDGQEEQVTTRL
The experiment in a line: Induction of S-nitrosylation of TRPC5 in HEK cells assessed as increase in Ca2+ level from extracellular space at 30 uM in presence of dithiothreitol. As to conditions: HEK293. The class given is cell-based.

For the compound `O=[N+]([O-])c1ccc(SSc2ccc([N+](=O)[O-])cn2)nc1`, the outcome was inactive.
